Test results from patent US20260325540A1 (priority 2023, published 2026).

How the values were obtained:
MERS-CoV 3CLpro = MERS-CoV 3CLpro (Middle East respiratory syndrome-related coronavirus, UniProt K9N638); assay: biochemical; details: MERS IC50, 75 nM MERS-CoV 3CLpro, 6 μM peptide 1 substrate, 25° C., 1.5 hrs, pH 7.5
SARS-CoV-2 3CLpro = SARS-CoV-2 3CLpro (Severe acute respiratory syndrome coronavirus 2, UniProt P0DTD1); assay: FRET based protease assay, SARS-CoV-2 3CL; assay type: biochemical, SARS-CoV-2 (strain BetaCoV/Wuhan/WIV04/2019)

MERS-CoV 3CLpro, sequence (K9N638 3248-3553 limits assumed): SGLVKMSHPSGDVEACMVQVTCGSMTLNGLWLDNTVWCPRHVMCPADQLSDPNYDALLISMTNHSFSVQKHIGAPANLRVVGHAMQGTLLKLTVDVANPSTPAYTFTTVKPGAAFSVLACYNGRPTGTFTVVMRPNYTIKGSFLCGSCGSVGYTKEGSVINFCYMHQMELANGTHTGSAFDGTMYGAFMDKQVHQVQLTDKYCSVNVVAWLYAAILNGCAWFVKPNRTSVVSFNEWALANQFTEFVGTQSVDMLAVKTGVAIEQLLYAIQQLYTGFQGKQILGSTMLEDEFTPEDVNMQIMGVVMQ

| SMILES | IC50 (MERS-CoV 3CLpro) | IC50 (SARS-CoV-2 3CLpro) |
| --- | --- | --- |
| Cc1cc(C(=O)N[C@H]2CCCC[C@H]3CNC(=O)[C@H]3C[C@@H](C#N)NC(=O)[C@@H]3[C@@H]4[C@H](CN3C2=O)C4(C)C)no1 [Example 122] | < 100 nM | < 100 nM |
| CC1(C)[C@@H]2[C@H]3C(=O)N[C@H](C#N)C[C@@H]4C(=O)NC[C@@H]4CCCC[C@H](NC(=O)CC4CC(F)(F)C4)C(=O)N3C[C@@H]21 [Example 89] | 100 to 1000 nM | < 100 nM |
| CC1(C)[C@@H]2[C@H]3C(=O)N[C@H](C#N)C[C@H]4C(=O)NC[C@@H]4CCCCC(=O)N3C[C@@H]21 [Example 25] | 1000 to 20000 nM | 1000 to 20000 nM |
| N#C[C@@H]1C[C@@H]2C(=O)NC[C@@H]2CCCC[C@H](Nc2nccc(C(F)(F)F)n2)C(=O)N2C[C@@H]3CCC[C@@H]3[C@H]2C(=O)N1 [Example 165] | 100 to 1000 nM | < 100 nM |
| CC1(C)[C@@H]2[C@H]3C(=O)N[C@H](C#N)C[C@@H]4C(=O)NC[C@@H]4CCCC[C@H](NS(=O)(=O)c4ccc(F)cc4F)C(=O)N3C[C@@H]21 [Example 157] | < 100 nM | < 100 nM |
| CC1(C)[C@@H]2[C@H]3C(=O)N[C@H](C#N)C[C@@H]4C(=O)NCC[C@@H]4CCCC[C@H](NC(=O)C(F)(F)F)C(=O)N3C[C@@H]21 [Example 104] | < 100 nM | < 100 nM |
| CC(C)C[C@@H]1NC(=O)[C@@H](NC(=O)OC(C)(C)C)CCC[C@H]2CNC(=O)[C@H]2C[C@@H](C=O)NC1=O [Example 15] | 100 to 1000 nM | 100 to 1000 nM |
| CC(C)(C)OC(=O)N[C@H]1CCCC[C@H]2CNC(=O)[C@H]2C[C@@H](C#N)NC(=O)[C@@H]2CC3(CC3)CN2C1=O [Example 105] | 100 to 1000 nM | 100 to 1000 nM |
| CC1(C)[C@@H]2[C@H]3C(=O)N[C@H](C#N)C[C@@H]4C(=O)NC[C@@H]4CCCC[C@H](NC(=O)C4CCOCC4)C(=O)N3C[C@@H]21 [Example 85] | < 100 nM | < 100 nM |
| CC(C)C[C@@H]1NC(=O)CCCCC[C@H]2CNC(=O)[C@H]2C[C@@H](C=O)NC1=O [Example 30] | 1000 to 20000 nM | 100 to 1000 nM |
| CC1(C)[C@@H]2[C@H]3C(=O)N[C@H](C#N)C[C@@H]4C(=O)NC[C@@H]4CCCC[C@H](NC(=O)c4cc(Cl)ccc4Cl)C(=O)N3C[C@@H]21 [Example 133] | < 100 nM | < 100 nM |
| CC(C)C[C@@H]1NC(=O)[C@@H](C2CCCC2)CCCC[C@H]2CNC(=O)[C@H]2C[C@@H](C#N)NC1=O [Example 41] | – | > 20000 nM |
| Cc1nc(C(=O)N[C@H]2CCCC[C@H]3CNC(=O)[C@H]3C[C@@H](C#N)NC(=O)[C@@H]3[C@@H]4[C@H](CN3C2=O)C4(C)C)co1 [Example 115] | < 100 nM | < 100 nM |
| CC1(C)[C@@H]2[C@H]3C(=O)N[C@H](C#N)C[C@@H]4C(=O)NC[C@@H]4CCCC[C@H](NC(=O)OC4CCCC4)C(=O)N3C[C@@H]21 [Example 75] | < 100 nM | < 100 nM |
| CC1(C)C[C@H]2C(=O)N[C@H](C#N)C[C@@H]3C(=O)NC[C@@H]3CCCC[C@H](NC(=O)OC(C)(C)C)C(=O)N2C1 [Example 130] | 100 to 1000 nM | 100 to 1000 nM |
| CC(C)(C)OC(=O)N[C@H]1CCCC[C@H]2CNC(=O)[C@H]2C[C@@H](C#N)NC(=O)[C@@H]2[C@H]3CC[C@H](CC3)N2C1=O [Example 111] | 100 to 1000 nM | 100 to 1000 nM |
| CC(C)(C(=O)N[C@H]1CCCC[C@H]2CNC(=O)[C@H]2C[C@@H](C#N)NC(=O)[C@@H]2[C@@H]3[C@H](CN2C1=O)C3(C)C)c1ccc(Cl)cc1 [Example 121] | 100 to 1000 nM | < 100 nM |
| CC1(C)[C@@H]2[C@H]3C(=O)N[C@H](C#N)C[C@@H]4C(=O)NC[C@@H]4CCCC[C@H](NC(=O)C4CCC(F)(F)CC4)C(=O)N3C[C@@H]21 [Example 68] | < 100 nM | < 100 nM |

| SMILES | IC50 (MERS-CoV 3CLpro) | IC50 (SARS-CoV-2 3CLpro) |
| --- | --- | --- |
| CC(C)(C)OC(=O)N[C@H]1CC/C=C/[C@H]2CCNC(=O)[C@H]2C[C@@H](C#N)NC(=O)[C@@H]2[C@H]3CCC[C@H]3CN2C1=O [Example 99] | 1000 to 20000 nM | 100 to 1000 nM |
| CC(C)(C)C(=O)N[C@H]1CCCC[C@H]2CCNC(=O)[C@H]2C[C@@H](C#N)NC(=O)[C@@H]2[C@@H]3[C@H](CN2C1=O)C3(C)C [Example 69] | 100 to 1000 nM | < 100 nM |
| CC(C)C[C@@H]1NC(=O)[C@@H](NC(=O)OC(C)(C)C)CCCC[C@H]2CNC(=O)[C@H]2C[C@@H](C#N)NC1=O [Example 56] | 100 to 1000 nM | 100 to 1000 nM |
| CC(C)(C)C(=O)N[C@H]1CCCC[C@H]2CNC(=O)[C@H]2C[C@@H](C#N)NC(=O)[C@H](C2CCCC2)NC1=O [Example 80] | 100 to 1000 nM | 100 to 1000 nM |
| CC1(C)[C@@H]2[C@H]3C(=O)N[C@H](C#N)C[C@@H]4C(=O)NC[C@@H]4CCCC[C@H](NC(=O)C4(C(F)(F)F)CC4)C(=O)N3C[C@@H]21 [Example 117] | < 100 nM | < 100 nM |
| CC(C)(C)CC(=O)N[C@H]1CCCC[C@H]2CCNC(=O)[C@H]2C[C@@H](C#N)NC(=O)[C@@H]2[C@H]3CCC[C@H]3CN2C1=O [Example 95] | 100 to 1000 nM | < 100 nM |
| CC(C)C[C@@H]1NC(=O)CCCCCC[C@@H]2CNC(=O)[C@H]2C[C@@H](C=O)NC1=O [Example 47] | > 20000 nM | 1000 to 20000 nM |
| N#C[C@@H]1C[C@@H]2C(=O)NCC[C@@H]2CCCC[C@H](NC(=O)OC2CCCC2)C(=O)N2C[C@@H]3CCC[C@@H]3[C@H]2C(=O)N1 [Example 93] | 100 to 1000 nM | < 100 nM |
| CC(C)C[C@@H]1NC(=O)[C@H](Cc2ccccc2)CCC[C@H]2CNC(=O)[C@H]2C[C@@H](C=O)NC1=O [Example 12] | 1000 to 20000 nM | 100 to 1000 nM |
| CC1(C)[C@@H]2[C@H]3C(=O)N[C@H](C#N)C[C@@H]4C(=O)NC[C@@H]4CCCC[C@H](NC(=O)C4CC5(CCC5)C4)C(=O)N3C[C@@H]21 (some centres unmarked) [Example 81] | 100 to 1000 nM | < 100 nM |
| CC1(C)[C@@H]2[C@H]3C(=O)N[C@H](C#N)C[C@@H]4C(=O)NC[C@@H]4CCCC[C@H](NC(=O)c4cncnc4)C(=O)N3C[C@@H]21 [Example 107] | < 100 nM | < 100 nM |
| CC(C)C[C@@H]1NC(=O)[C@@H](NC(=O)C(C)(C)C)CC/C=C/[C@H]2CNC(=O)[C@H]2C[C@@H](C#N)NC1=O [Example 58] | 100 to 1000 nM | < 100 nM |
| CC(C)C[C@@H]1NC(=O)CCCCCC[C@H]2CNCC(=O)[C@@H]2C[C@@H](C=O)NC1=O [Example 52] | 1000 to 20000 nM | 100 to 1000 nM |
| CC1(C)[C@@H]2[C@H]3C(=O)N[C@H](C#N)C[C@@H]4C(=O)NC[C@@H]4CCCC[C@H](NS(=O)(=O)C4CCC4)C(=O)N3C[C@@H]21 [Example 160] | < 100 nM | < 100 nM |
| CC1(C)[C@@H]2[C@H]3C(=O)N[C@H](C#N)C[C@@H]4C(=O)NC[C@@H]4CCCC[C@H](Nc4nccc(C(F)(F)F)n4)C(=O)N3C[C@@H]21 [Example 162] | 100 to 1000 nM | < 100 nM |
| CC(C)C[C@@H]1NC(=O)[C@@H](Cc2ccccc2)CCCC[C@@H]2CNC(=O)[C@@H]2C[C@@H](C=O)NC1=O [Example 35] | – | 1000 to 20000 nM |
| CC(C)(C)OC(=O)N[C@H]1CCCC[C@H]2CCNC(=O)[C@H]2C[C@@H](C#N)NC(=O)[C@@H]2[C@@H]3[C@H](CN2C1=O)C3(C)C [Example 96] | < 100 nM | – |
| CC(C)C[C@@H]1NC(=O)[C@@H](Cc2ccccc2)CCC[C@H]2CNC(=O)[C@@H]2C[C@@H](C=O)NC1=O [Example 10] | 1000 to 20000 nM | – |
